Test results as given in PubChem BioAssay (NCI).
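A five-concentration, 48-hour dose response in 96-well plates underlies each endpoint, interpolated linearly between surrounding concentrations. At the GI50, growth is halved. At the TGI there is no net growth.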

What was measured:
Test in all cases: NCI tumour cell line growth inhibition, 48 h
MCF7 breast = tested on: MCF7 breast
SW-620 colon = tested on: SW-620 colon
K-562 leukemia = tested on: K-562 leukemia
OVCAR-4 ovarian = tested on: OVCAR-4 ovarian
IGROV1 ovarian = tested on: IGROV1 ovarian
OVCAR-8 ovarian = tested on: OVCAR-8 ovarian
KM12 colon = tested on: KM12 colon
PC-3 prostate = tested on: PC-3 prostate
ACHN renal = tested on: ACHN renal
SK-OV-3 ovarian = tested on: SK-OV-3 ovarian
COLO 205 colon = tested on: COLO 205 colon
SNB-19 CNS = tested on: SNB-19 CNS
SR leukemia = tested on: SR leukemia
SN12C renal = tested on: SN12C renal
NCI-H23 lung = tested on: NCI-H23 lung
MDA-MB-231 breast = tested on: MDA-MB-231 breast
MDA-MB-435 = tested on: MDA-MB-435
CAKI-1 renal = tested on: CAKI-1 renal
MALME-3M melanoma = tested on: MALME-3M melanoma
BT-549 breast = tested on: BT-549 breast
OVCAR-3 ovarian = tested on: OVCAR-3 ovarian
EKVX NSCLC = tested on: EKVX NSCLC
SF-268 CNS = tested on: SF-268 CNS
UACC-257 melanoma = tested on: UACC-257 melanoma
A549 NSCLC = tested on: A549 NSCLC
NCI-H522 lung = tested on: NCI-H522 lung
T-47D breast = tested on: T-47D breast
HOP-92 NSCLC = tested on: HOP-92 NSCLC
HCT-15 colon = tested on: HCT-15 colon
HOP-62 NSCLC = tested on: HOP-62 NSCLC
HCC-2998 colon = tested on: HCC-2998 colon
NCI-H226 lung = tested on: NCI-H226 lung
DU-145 prostate = tested on: DU-145 prostate
TK-10 renal = tested on: TK-10 renal
SK-MEL-28 melanoma = tested on: SK-MEL-28 melanoma
SF-539 CNS = tested on: SF-539 CNS
SNB-75 CNS = tested on: SNB-75 CNS
SK-MEL-2 melanoma = tested on: SK-MEL-2 melanoma
SK-MEL-5 melanoma = tested on: SK-MEL-5 melanoma
HT29 colon = tested on: HT29 colon
NCI/ADR-RES ovarian = tested on: NCI/ADR-RES ovarian
NCI-H460 lung = tested on: NCI-H460 lung
LOX IMVI melanoma = tested on: LOX IMVI melanoma
UO-31 renal = tested on: UO-31 renal
HL-60(TB) leukemia = tested on: HL-60(TB) leukemia
CCRF-CEM leukemia = tested on: CCRF-CEM leukemia
UACC-62 melanoma = tested on: UACC-62 melanoma
OVCAR-5 ovarian = tested on: OVCAR-5 ovarian
SF-295 CNS = tested on: SF-295 CNS
A498 renal = tested on: A498 renal
MOLT-4 leukemia = tested on: MOLT-4 leukemia
786-0 renal = tested on: 786-0 renal
U251 CNS = tested on: U251 CNS
M14 melanoma = tested on: M14 melanoma
HCT-116 colon = tested on: HCT-116 colon
RXF 393 renal = tested on: RXF 393 renal

CN1CCN(c2ccc(Nc3nc(NCCCNS(=O)(=O)c4ccc(C(F)(F)F)cc4)c4sccc4n3)cc2)CC1
GI50 (MCF7 breast): 1.74 µM | TGI (MCF7 breast): 3.32 µM | GI50 (SW-620 colon): 1.89 µM | TGI (SW-620 colon): 3.58 µM | GI50 (K-562 leukemia): 1.84 µM | TGI (K-562 leukemia): 5.52 µM | GI50 (OVCAR-4 ovarian): 2.62 µM | TGI (OVCAR-4 ovarian): 8.12 µM | GI50 (IGROV1 ovarian): 2.38 µM | TGI (IGROV1 ovarian): 6.9 µM | GI50 (OVCAR-8 ovarian): 3.58 µM | TGI (OVCAR-8 ovarian): 21.8 µM | GI50 (KM12 colon): 4.3 µM | TGI (KM12 colon): 20.9 µM | GI50 (PC-3 prostate): 4.27 µM | TGI (PC-3 prostate): 20.2 µM | GI50 (ACHN renal): 2.69 µM | TGI (ACHN renal): 7.44 µM | GI50 (SK-OV-3 ovarian): 12.7 µM | TGI (SK-OV-3 ovarian): 27.4 µM | GI50 (COLO 205 colon): 2.09 µM | TGI (COLO 205 colon): 4.12 µM | GI50 (SNB-19 CNS): 3.6 µM | TGI (SNB-19 CNS): 12.9 µM | GI50 (SR leukemia): 2.06 µM | TGI (SR leukemia): 6.39 µM | GI50 (SN12C renal): 2.22 µM | TGI (SN12C renal): 6.02 µM | GI50 (NCI-H23 lung): 3.41 µM | TGI (NCI-H23 lung): 11.5 µM | GI50 (MDA-MB-231 breast): 1.88 µM | TGI (MDA-MB-231 breast): 3.51 µM | GI50 (MDA-MB-435): 1.79 µM | TGI (MDA-MB-435): 3.24 µM | GI50 (CAKI-1 renal): 3.05 µM | TGI (CAKI-1 renal): 11.3 µM | GI50 (MALME-3M melanoma): 1.72 µM | TGI (MALME-3M melanoma): 3.13 µM | GI50 (BT-549 breast): 1.86 µM | TGI (BT-549 breast): 3.68 µM | GI50 (OVCAR-3 ovarian): 2.74 µM | TGI (OVCAR-3 ovarian): 6.89 µM | GI50 (EKVX NSCLC): 3.73 µM | TGI (EKVX NSCLC): 14.6 µM | GI50 (SF-268 CNS): 2.39 µM | TGI (SF-268 CNS): 9.5 µM | GI50 (UACC-257 melanoma): 1.92 µM | TGI (UACC-257 melanoma): 3.77 µM | GI50 (A549 NSCLC): 3.71 µM | TGI (A549 NSCLC): 21.5 µM | GI50 (NCI-H522 lung): 1.77 µM | TGI (NCI-H522 lung): 3.7 µM | GI50 (T-47D breast): 1.89 µM | TGI (T-47D breast): 4.09 µM | GI50 (HOP-92 NSCLC): 1.91 µM | TGI (HOP-92 NSCLC): 6.29 µM | GI50 (HCT-15 colon): 1.58 µM | TGI (HCT-15 colon): 3.08 µM | GI50 (HOP-62 NSCLC): 2.6 µM | TGI (HOP-62 NSCLC): 7.74 µM | GI50 (HCC-2998 colon): 1.98 µM | TGI (HCC-2998 colon): 3.98 µM | GI50 (NCI-H226 lung): 9.09 µM | TGI (NCI-H226 lung): 35 µM | GI50 (DU-145 prostate): 5.11 µM | TGI (DU-145 prostate): 16.8 µM | GI50 (TK-10 renal): 2.78 µM | TGI (TK-10 renal): 8.39 µM | GI50 (SK-MEL-28 melanoma): 1.63 µM | TGI (SK-MEL-28 melanoma): 3.02 µM | GI50 (SF-539 CNS): 1.68 µM | TGI (SF-539 CNS): 3.05 µM | GI50 (SNB-75 CNS): 14.5 µM | TGI (SNB-75 CNS): 28 µM | GI50 (SK-MEL-2 melanoma): 1.78 µM | TGI (SK-MEL-2 melanoma): 3.46 µM | GI50 (SK-MEL-5 melanoma): 1.78 µM | TGI (SK-MEL-5 melanoma): 3.2 µM | GI50 (HT29 colon): 2.11 µM | TGI (HT29 colon): 4.89 µM | GI50 (NCI/ADR-RES ovarian): 3.17 µM | TGI (NCI/ADR-RES ovarian): 11.2 µM | GI50 (NCI-H460 lung): 2.28 µM | TGI (NCI-H460 lung): 4.75 µM | GI50 (LOX IMVI melanoma): 1.64 µM | TGI (LOX IMVI melanoma): 3.02 µM | GI50 (UO-31 renal): 1.69 µM | TGI (UO-31 renal): 3.68 µM | GI50 (HL-60(TB) leukemia): 1.78 µM | TGI (HL-60(TB) leukemia): 3.87 µM | GI50 (CCRF-CEM leukemia): 3.42 µM | TGI (CCRF-CEM leukemia): 17 µM | GI50 (UACC-62 melanoma): 1.68 µM | TGI (UACC-62 melanoma): 3.11 µM | GI50 (OVCAR-5 ovarian): 3.26 µM | TGI (OVCAR-5 ovarian): 13.4 µM | GI50 (SF-295 CNS): 1.81 µM | TGI (SF-295 CNS): 3.51 µM | GI50 (A498 renal): 2.16 µM | TGI (A498 renal): 3.99 µM | GI50 (MOLT-4 leukemia): 2.13 µM | TGI (MOLT-4 leukemia): 7.32 µM | GI50 (786-0 renal): 1.93 µM | TGI (786-0 renal): 3.79 µM | GI50 (U251 CNS): 2.62 µM | TGI (U251 CNS): 7.06 µM | GI50 (M14 melanoma): 1.89 µM | TGI (M14 melanoma): 3.59 µM

CCOC(=O)c1c(NC(=O)c2cccc(C(F)(F)F)c2)sc2c1CCC(=O)C2
GI50 (SW-620 colon): 0.445 µM | TGI (SW-620 colon): > 100 µM | GI50 (K-562 leukemia): 0.488 µM | TGI (K-562 leukemia): > 100 µM | GI50 (OVCAR-4 ovarian): 3.14 µM | TGI (OVCAR-4 ovarian): > 100 µM | GI50 (IGROV1 ovarian): 2.4 µM | TGI (IGROV1 ovarian): > 100 µM | GI50 (KM12 colon): 2.88 µM | TGI (KM12 colon): > 100 µM | GI50 (PC-3 prostate): 1.31 µM | TGI (PC-3 prostate): > 100 µM | GI50 (ACHN renal): 2.65 µM | TGI (ACHN renal): > 100 µM | GI50 (SNB-19 CNS): 1.53 µM | TGI (SNB-19 CNS): > 100 µM | GI50 (SR leukemia): 0.526 µM | TGI (SR leukemia): > 100 µM | GI50 (NCI-H23 lung): 3 µM | TGI (NCI-H23 lung): > 100 µM | GI50 (MDA-MB-231 breast): 3.5 µM | TGI (MDA-MB-231 breast): > 100 µM | GI50 (MALME-3M melanoma): > 100 µM | TGI (MALME-3M melanoma): > 100 µM | GI50 (BT-549 breast): 1.61 µM | TGI (BT-549 breast): > 100 µM | GI50 (OVCAR-3 ovarian): 3.53 µM | TGI (OVCAR-3 ovarian): > 100 µM | GI50 (SF-268 CNS): 4.17 µM | TGI (SF-268 CNS): > 100 µM | GI50 (UACC-257 melanoma): > 100 µM | TGI (UACC-257 melanoma): > 100 µM | GI50 (NCI-H522 lung): 0.514 µM | TGI (NCI-H522 lung): 6.81 µM | GI50 (T-47D breast): 2.12 µM | TGI (T-47D breast): > 100 µM | GI50 (HCT-15 colon): 0.652 µM | TGI (HCT-15 colon): > 100 µM | GI50 (HOP-62 NSCLC): 5.2 µM | TGI (HOP-62 NSCLC): > 100 µM | GI50 (DU-145 prostate): > 100 µM | TGI (DU-145 prostate): > 100 µM | GI50 (TK-10 renal): 5.09 µM | TGI (TK-10 renal): > 100 µM | GI50 (HCT-116 colon): 0.49 µM | TGI (HCT-116 colon): > 100 µM | GI50 (NCI/ADR-RES ovarian): 3.06 µM | TGI (NCI/ADR-RES ovarian): > 100 µM | GI50 (RXF 393 renal): 3.36 µM | TGI (RXF 393 renal): 9.03 µM | GI50 (NCI-H460 lung): 2.66 µM | TGI (NCI-H460 lung): > 100 µM | GI50 (LOX IMVI melanoma): 0.633 µM | TGI (LOX IMVI melanoma): > 100 µM | GI50 (HL-60(TB) leukemia): 1.9 µM | TGI (HL-60(TB) leukemia): > 100 µM | GI50 (CCRF-CEM leukemia): 1.03 µM | TGI (CCRF-CEM leukemia): > 100 µM | GI50 (UACC-62 melanoma): 2.11 µM | TGI (UACC-62 melanoma): > 100 µM | GI50 (OVCAR-5 ovarian): 2.12 µM | TGI (OVCAR-5 ovarian): > 100 µM | GI50 (SF-295 CNS): 3.08 µM | TGI (SF-295 CNS): > 100 µM | GI50 (A498 renal): > 100 µM | TGI (A498 renal): > 100 µM | GI50 (786-0 renal): 3.54 µM | TGI (786-0 renal): > 100 µM | GI50 (U251 CNS): 0.479 µM | TGI (U251 CNS): > 100 µM
